This passage reports IC50 results from patent US9365588B2, “Benzoxazines as modulators of ion channels” (Vertex Pharmaceuticals Incorporated, priority 2011, dated 2016).

Sequence of human NaV 1.7 (Q15858 whole entry): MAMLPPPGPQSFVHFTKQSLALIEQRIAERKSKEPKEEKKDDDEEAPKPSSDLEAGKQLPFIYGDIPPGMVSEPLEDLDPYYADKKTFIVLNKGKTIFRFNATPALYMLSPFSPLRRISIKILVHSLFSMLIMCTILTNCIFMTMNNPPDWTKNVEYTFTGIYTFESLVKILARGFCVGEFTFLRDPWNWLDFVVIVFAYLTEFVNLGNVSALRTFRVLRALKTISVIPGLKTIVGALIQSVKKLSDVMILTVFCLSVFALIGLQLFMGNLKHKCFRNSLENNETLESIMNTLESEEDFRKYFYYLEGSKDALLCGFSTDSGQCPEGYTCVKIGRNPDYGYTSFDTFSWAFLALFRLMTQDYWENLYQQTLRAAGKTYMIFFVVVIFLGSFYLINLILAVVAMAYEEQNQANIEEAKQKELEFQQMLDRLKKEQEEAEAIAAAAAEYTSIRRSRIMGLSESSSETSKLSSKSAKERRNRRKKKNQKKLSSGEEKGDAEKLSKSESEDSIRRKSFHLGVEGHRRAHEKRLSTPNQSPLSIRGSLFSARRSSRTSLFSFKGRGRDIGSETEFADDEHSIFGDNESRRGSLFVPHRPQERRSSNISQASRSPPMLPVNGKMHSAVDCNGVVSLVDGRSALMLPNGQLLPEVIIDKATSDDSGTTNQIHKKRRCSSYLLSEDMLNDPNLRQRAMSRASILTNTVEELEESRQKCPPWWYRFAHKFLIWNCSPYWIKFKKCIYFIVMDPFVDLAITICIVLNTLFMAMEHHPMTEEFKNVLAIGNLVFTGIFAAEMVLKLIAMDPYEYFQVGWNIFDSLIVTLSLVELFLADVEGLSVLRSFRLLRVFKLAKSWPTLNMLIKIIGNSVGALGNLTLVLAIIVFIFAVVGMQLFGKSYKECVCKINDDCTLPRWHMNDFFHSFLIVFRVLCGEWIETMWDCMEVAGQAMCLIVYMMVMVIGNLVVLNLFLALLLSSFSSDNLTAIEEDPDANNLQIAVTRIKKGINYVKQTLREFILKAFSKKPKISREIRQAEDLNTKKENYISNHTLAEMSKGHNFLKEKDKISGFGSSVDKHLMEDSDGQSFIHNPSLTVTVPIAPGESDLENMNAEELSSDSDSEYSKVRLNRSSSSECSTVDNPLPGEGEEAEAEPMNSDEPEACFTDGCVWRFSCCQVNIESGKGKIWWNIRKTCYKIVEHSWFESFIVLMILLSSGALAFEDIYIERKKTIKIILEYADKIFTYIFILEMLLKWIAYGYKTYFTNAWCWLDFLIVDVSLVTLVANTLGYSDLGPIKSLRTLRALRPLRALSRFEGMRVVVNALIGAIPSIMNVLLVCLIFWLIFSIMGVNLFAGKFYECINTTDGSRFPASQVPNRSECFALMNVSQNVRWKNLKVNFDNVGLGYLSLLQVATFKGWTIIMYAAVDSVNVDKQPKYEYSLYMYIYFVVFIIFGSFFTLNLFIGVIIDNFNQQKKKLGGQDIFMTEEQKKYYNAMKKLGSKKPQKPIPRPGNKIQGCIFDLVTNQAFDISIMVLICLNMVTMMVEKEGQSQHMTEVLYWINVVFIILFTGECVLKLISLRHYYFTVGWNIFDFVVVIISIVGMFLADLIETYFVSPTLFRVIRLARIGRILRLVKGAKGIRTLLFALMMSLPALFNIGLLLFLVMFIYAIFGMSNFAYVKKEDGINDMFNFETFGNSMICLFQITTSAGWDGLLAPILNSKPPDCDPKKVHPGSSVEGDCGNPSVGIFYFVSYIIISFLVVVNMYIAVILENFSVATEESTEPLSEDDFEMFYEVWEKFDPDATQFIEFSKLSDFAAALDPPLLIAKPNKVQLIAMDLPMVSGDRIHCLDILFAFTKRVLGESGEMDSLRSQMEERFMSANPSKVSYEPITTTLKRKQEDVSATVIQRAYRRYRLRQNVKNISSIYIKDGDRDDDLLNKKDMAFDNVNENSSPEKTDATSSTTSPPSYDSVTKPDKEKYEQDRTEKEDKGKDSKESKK

For this test, the target named is human NaV 1.7 (Homo sapiens, UniProt Q15858). In words: E-VIPR optical membrane potential assay with electrical stimulation. The settings on record: sodium channel inhibition; read-out: Binned Activity Data (IC50). It is filed as cell-based. The method in brief:
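Membrane-potential read-out: background-subtracted 460 nm/580 nm ratio during a 9 s current-controlled stimulus, 400 Hz scan. Before stimulation, NaV1.7-HEK cells carried coumarin/oxonol dye and compound (final DMSO 0.625%) for 20–35 min at room temperature; tetracaine 125 μM served as positive control.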
A word on the IC50: it is the concentration that inhibits the measured activity by half. Consider `CC(C)S(=O)(=O)c1ccc(C(=O)N2CCC3(CC2)Oc2ccccc2-n2c(C#N)ccc23)cc1` [Compound 297], for which the IC50 was at most 2 µM.

`COCCOc1ccc(C(=O)N2CCC3(CC2)Oc2ccccc2-c2c3ccn2C)cc1OC` [Compound 298]: the 50% inhibitory concentration (IC50) is at most 2 µM.

For `COc1cccc(Cl)c1C(=O)N1CCC2(CC1)Oc1ccccc1-c1c2cnn1C` [Compound 299], the IC50 was above 5 µM.

For `COc1ccc(C(=O)N2CCC3(CC2)Oc2cc(Cl)ccc2-n2c(CO)ccc23)cc1C(F)(F)F` [Compound 300], the half-maximal inhibitory concentration (IC50) was at most 2 µM.

For `COC[C@@H](C)Oc1ccc(C(=O)N2CCC3(CC2)Oc2cc(F)ccc2-n2cccc23)cc1OC` [Compound 303], the IC50 is at most 2 µM.

Take `N#Cc1cc(F)cc(C(=O)N2CCC3(CC2)Oc2cc(Cl)ccc2-n2cccc23)c1` [Compound 304]: the IC50 is at most 2 µM.

For the compound `COCCOc1ccc(C(=O)N2CCC3(CC2)Oc2cc(F)ccc2-n2cccc23)cc1OC` [Compound 305], the IC50 is at most 2 µM.

As to `CC(C)Oc1ccc(C(=O)N2CCC3(CC2)Oc2ccccc2-c2c3cnn2C)cc1C#N` [Compound 306], the IC50 is at most 2 µM.

With `COc1cc(C(=O)N2CCC3(CC2)Oc2ccccc2-c2nn(C)cc23)ccc1OC(C)(C)C` [Compound 307], the IC50 was at most 2 µM.

Turning to `CC(C)(O)Cc1ccc(C(=O)N2CCC3(CC2)Oc2ccccc2-n2c(C#N)ccc23)cc1` [Compound 308], the half-inhibitory concentration (IC50) is at most 2 µM.

On to `Cn1ncc2c1-c1cc(F)ccc1OC21CCN(C(=O)c2ccccc2C(F)F)CC1` [Compound 309], for which the IC50 was above 5 µM.

On to `CC(C)Oc1ccc(C(=O)N2CCC3(CC2)Oc2ccccc2-n2c(C#N)ccc23)c(CO)c1` [Compound 310], for which the concentration for half-maximal inhibition (IC50) was at most 2 µM.

Take `CC(=O)c1ccc2n1-c1ccccc1OC21CCN(C(=O)c2ccc(S(=O)(=O)C(C)(C)C)cc2)CC1` [Compound 311]: the IC50 was at most 2 µM.

Take `COCCOc1cc(F)c(C(=O)N2CCC3(CC2)Oc2cc(F)ccc2-n2cccc23)cc1OC` [Compound 312]: the IC50 is at most 2 µM.

On to `COc1cc(C(=O)N2CCC3(CC2)Oc2ccccc2-c2c3cnn2C)ccc1OC(C)(C)C` [Compound 313], for which the half-maximal inhibitory concentration (IC50) is at most 2 µM.

Consider `CCc1ccc(C(=O)N2CCC3(CC2)Oc2ccccc2-n2ccc(C)c23)cc1OC` [Compound 314], for which the concentration for half-maximal inhibition (IC50) is at most 2 µM.

`Cc1cc(C(=O)N2CCC3(CC2)Oc2ccccc2-n2ccc(C)c23)ccc1OC(C)C` [Compound 315]: the IC50 was at most 2 µM.

For the compound `COc1cc(C(=O)N2CCC3(CC2)Oc2ccccc2-n2ccnc23)ccc1OC(C)C` [Compound 316], the 50% inhibitory concentration (IC50) was at most 2 µM.

For the compound `Cn1ncc2c1-c1ccccc1OC21CCN(C(=O)c2cc3ccccc3n2C)CC1` [Compound 317], the IC50 was above 5 µM.

Turning to `CC(C)Oc1ccc(C(=O)N2CCC3(CC2)Oc2ccccc2-n2c(C#N)ccc23)c(F)c1` [Compound 318], the IC50 was at most 2 µM.

As for `Cn1ncc2c1-c1ccccc1OC21CCN(C(=O)c2ccccc2NS(C)(=O)=O)CC1` [Compound 319], the IC50 lay in the range of 2 to 5 µM.

As to `CCn1ncc2c1-c1ccccc1OC21CCN(C(=O)c2ccccc2OC(F)(F)F)CC1` [Compound 321], the IC50 is at most 2 µM.

In the case of `Cn1ncc2c1-c1ccccc1OC21CCN(C(=O)c2ccnc3ccccc23)CC1` [Compound 322], the IC50 lay in the range of 2 to 5 µM.

Consider `CC(C)(N)c1ccc(C(=O)N2CCC3(CC2)Oc2ccccc2-n2c(C#N)ccc23)cc1` [Compound 323], for which the 50% inhibitory concentration (IC50) was 2 to 5 µM.

`Cc1nc2ccc(C(=O)N3CCC4(CC3)Oc3ccccc3-c3c4cnn3C)cc2s1` [Compound 324]: the IC50 is above 5 µM.

Regarding `Cn1cc2c(n1)-c1ccccc1OC21CCN(C(=O)c2ccc3nc(N)sc3c2)CC1` [Compound 325], the half-maximal inhibitory concentration (IC50) lay in the range of 2 to 5 µM.

Regarding `CC[C@H](C)Oc1ccc(C(=O)N2CCC3(CC2)Oc2ccccc2-n2cccc23)cc1OC` [Compound 326], the IC50 is at most 2 µM.

`CC(C)(C)S(=O)(=O)c1ccc(C(=O)N2CCC3(CC2)Oc2ccccc2-n2cccc23)cc1` [Compound 327]: the half-inhibitory concentration (IC50) is at most 2 µM.

As to `COc1c(F)cccc1C(=O)N1CCC2(CC1)Oc1cc(Cl)ccc1-c1c2cnn1C` [Compound 328], the concentration for half-maximal inhibition (IC50) was at most 2 µM.

Consider `O=C(c1cccnc1Oc1ccccc1)N1CCC2(CC1)Oc1ccccc1-n1c(C(F)(F)F)ccc12` [Compound 330], for which the IC50 is at most 2 µM.

In the case of `Cn1ncc2c1-c1ccccc1OC21CCN(C(=O)c2csc(-c3ccccc3)n2)CC1` [Compound 331], the IC50 is above 5 µM.

Take `CN(C)CCOc1ccc(C(=O)N2CCC3(CC2)Oc2ccccc2-n2cccc23)cc1C(F)(F)F` [Compound 333]: the 50% inhibitory concentration (IC50) was at most 2 µM.

Consider `CC(C)(Oc1ccc(C(=O)N2CCC3(CC2)Oc2ccccc2-n2c(C#N)ccc23)cc1)C(=O)O` [Compound 334], for which the IC50 was above 5 µM.

With `COc1cc(S(=O)(=O)C(C)C)ccc1C(=O)N1CCC2(CC1)Oc1ccccc1-c1c2cnn1C` [Compound 336], the concentration for half-maximal inhibition (IC50) was at most 2 µM.

With `O=C(c1ccccc1OC(F)F)N1CCC2(CC1)Oc1ccccc1-c1c2cnn1C(F)(F)F` [Compound 337], the IC50 was at most 2 µM.

`Cc1cc(C(=O)N2CCC3(CC2)Oc2cc(C#N)ccc2-n2cccc23)ccc1OC(C)C` [Compound 338]: the IC50 is at most 2 µM.

Take `Cn1ncc2c1-c1cc(F)ccc1OC21CCN(C(=O)c2ccccc2OC(F)F)CC1` [Compound 340]: the IC50 was at most 2 µM.

As for `O=C(c1ccc(OC(F)F)cc1)N1CCC2(CC1)Oc1ccccc1-n1c(C(F)(F)F)ccc12` [Compound 341], the IC50 is above 5 µM.

With `COc1cc(C(=O)N2CCC3(CC2)Oc2ccccc2-n2cccc23)ccc1OC1CCCC1` [Compound 342], the IC50 is at most 2 µM.

In the case of `N#Cc1ccccc1C(=O)N1CCC2(CC1)Oc1cc(Cl)ccc1-n1cccc12` [Compound 343], the 50% inhibitory concentration (IC50) was above 5 µM.

`Cn1ncc2c1-c1ccccc1OC21CCN(C(=O)c2cccc3c2OC(F)(F)O3)CC1` [Compound 345]: the concentration for half-maximal inhibition (IC50) was at most 2 µM.

In the case of `Cn1ncc2c1-c1ccccc1OC21CCN(C(=O)c2cccc3c2OCCO3)CC1` [Compound 346], the IC50 was at most 2 µM.

In the case of `CCc1ccc(C(=O)N2CCC3(CC2)Oc2ccccc2-n2c(C(F)(F)F)ccc23)cc1OC` [Compound 347], the 50% inhibitory concentration (IC50) is at most 2 µM.

With `COc1cc(C(=O)N2CCC3(CC2)Oc2cc(Cl)ccc2-n2cccc23)ccc1O[C@@H]1CCC[C@H]1O` [Compound 348], the IC50 is at most 2 µM.

For `Cc1ccc(C(=O)N2CCC3(CC2)Oc2cc(F)ccc2-n2cccc23)cc1C` [Compound 349], the IC50 was at most 2 µM.

For `Cn1ncc2c1-c1ccccc1OC21CCN(C(=O)c2cccc3c2OC(C)(C)C3)CC1` [Compound 350], the concentration for half-maximal inhibition (IC50) was at most 2 µM.

With `CCCOc1ccc(C(=O)N2CCC3(CC2)Oc2ccccc2-n2cccc23)cc1OC` [Compound 352], the IC50 is at most 2 µM.

As for `COc1ccc(F)c(F)c1C(=O)N1CCC2(CC1)Oc1ccccc1-c1c2cnn1C` [Compound 353], the IC50 was above 5 µM.

On to `COc1ccc(C(=O)N2CCC3(CC2)Oc2ccccc2-c2c3cnn2C)c(OC)c1OC` [Compound 355], for which the half-inhibitory concentration (IC50) is at most 2 µM.

For the compound `CC(=O)c1ccc2n1-c1ccccc1OC21CCN(C(=O)c2ccc(S(C)(=O)=O)c(C)c2)CC1` [Compound 357], the 50% inhibitory concentration (IC50) is at most 2 µM.

Take `COc1ccc(OC)c(C(=O)N2CCC3(CC2)Oc2ccccc2-c2c3cnn2C)c1` [Compound 358]: the half-inhibitory concentration (IC50) fell in the range of 2 to 5 µM.

Consider `Cc1cc(C(=O)N2CCC3(CC2)Oc2ccccc2-n2c(C)ccc23)ccc1OC(C)C` [Compound 359], for which the IC50 is at most 2 µM.

As to `CC(=O)c1ccc2n1-c1ccccc1OC21CCN(C(=O)c2ccccc2OC(F)F)CC1` [Compound 360], the IC50 is at most 2 µM.

Turning to `CCCOc1ccc(C(=O)N2CCC3(CC2)Oc2ccccc2-n2cccc23)cc1C#N` [Compound 361], the IC50 was at most 2 µM.

Turning to `COc1cc(C(=O)N2CCC3(CC2)Oc2ccccc2-c2c3cnn2C)ccc1OCCC(C)C` [Compound 362], the 50% inhibitory concentration (IC50) was at most 2 µM.

Consider `Cc1cc(C(=O)N2CCC3(CC2)Oc2ccccc2-n2c(C#N)ccc23)ccc1S(=O)(=O)C(C)C` [Compound 363], for which the half-maximal inhibitory concentration (IC50) was at most 2 µM.

For the compound `CC(C)(O)c1ccc(C(=O)N2CCC3(CC2)Oc2ccccc2-n2c(C#N)ccc23)cc1CO` [Compound 364], the IC50 was at most 2 µM.

With `COc1cc(C(=O)N2CCC3(CC2)Oc2cc(Cl)ccc2-n2cccc23)ccc1OC1CCC(O)C1` (stereo not drawn) [Compound 366], the 50% inhibitory concentration (IC50) is at most 2 µM.

With `O=C(c1cccc(C(F)(F)F)c1)N1CCC2(CC1)Oc1cc(Cl)ccc1-n1cccc12` [Compound 367], the IC50 is at most 2 µM.

In the case of `Cn1ncc2c1-c1ccccc1OC21CCN(C(=O)c2ccc3c(c2)C(C)(C)CO3)CC1` [Compound 369], the IC50 is at most 2 µM.

As to `Cc1cc(C(=O)N2CCC3(CC2)Oc2cc(Cl)ccc2-c2c3cnn2C)ccc1OC(C)C` [Compound 370], the IC50 was at most 2 µM.

For `CCn1ncc2c1-c1ccccc1OC21CCN(C(=O)c2ccc(C(C)(C)C)c(OC)c2)CC1` [Compound 372], the 50% inhibitory concentration (IC50) was at most 2 µM.

As for `COc1cc(C(=O)N2CCC3(CC2)Oc2cc(Cl)ccc2-n2cccc23)ccc1OCC(N)=O` [Compound 373], the IC50 is at most 2 µM.

As to `Cc1ccc2c(c1)OC1(CCN(C(=O)c3ccc(OC(C)C)c(CO)c3)CC1)c1ccc(C#N)n1-2` [Compound 375], the IC50 is at most 2 µM.

Regarding `CC(C)Oc1ccc(C(=O)N2CCC3(CC2)Oc2ccccc2-n2cccc23)cc1C(F)(F)F` [Compound 376], the IC50 is at most 2 µM.

Take `CCc1ccc(C(=O)N2CCC3(CC2)Oc2cc(F)ccc2-n2cccc23)cc1C` [Compound 377]: the IC50 is at most 2 µM.

In the case of `COc1cc(C(=O)N2CCC3(CC2)Oc2cc(F)ccc2-n2cccc23)ccc1OCC(C)(C)OC` [Compound 378], the IC50 is at most 2 µM.

For the compound `CC(=O)c1ccc2n1-c1ccccc1OC21CCN(C(=O)c2ccc(C(C)(C)O)cc2)CC1` [Compound 379], the IC50 is at most 2 µM.

Regarding `Cn1ncc2c1-c1ccccc1OC21CCN(C(=O)c2ccccc2OC(F)F)CC1` [Compound 381], the half-inhibitory concentration (IC50) was at most 2 µM.
